Reference: patent publication US20250017886A1, “FORMULATIONS AND METHODS FOR INCREASING CREATININE LEVELS IN PLASMA, EXTRACELLULAR FLUID AND/OR INTRACELLULAR COMPARTMENTS” (Vireo Systems, Inc., priority 2023, published 2025)
In brackets after ≈: the same amount, converted by molar mass. Entries after “also recorded” stand apart in the source; their conditions may differ. Counter-ions that a name gives are not always drawn.

Columns and labels:
[1] = system: human colon epithelial (Caco-2); assay: Creatinine uptake in Caco-2 cells; type: cell-based; conditions: Caco-2, 1 mM, 3-hour period; hydrochloride
[2] = Saturated aqueous solubility determination (HPLC); type: physicochemical; conditions: for Ratio (relative to CM): solubility relative to creatine monohydrate; for solubility at 1.5 h: thermodynamic from solid, deionized water, 25° C.
Method: After 1.5 hour, the saturated solutions were vortexed and 2-ml aliquots removed and centrifuged in microcentrifuge tubes at 11,000 rpm for 5 min. Concentrations were analyzed by HPLC by diluting 500 μL of supernatant with mobile phase (500 μL). The mean±standard deviation of the saturation solubility for each antiviral therapeutic compound is calculated from the corresponding standard curves.

[3] = system: hCMEC/d3 microfluidic culture model; assay: Permeability of microfluidic BBB model treated with cancer patient plasma; type: cell-based, human; conditions: for permeability coefficient: 1 mM CtB
hBMEC/d3 cells = assay: Bradykinin-induced prostaglandin E2 release (PGE2 ELISA); type: cell-based; conditions: for inhibition of prostaglandin (PGE2) release: 1.0 mM, 1-hour preincubation, 10 μM bradykinin, at 6 and 24 hours, compared with 10 μM HOE 140
Method: In an effort to determine the impact/effectiveness of creatinine pronutrient formulations made in accordance with the present disclosure on decreasing prostaglandin release over a 24-hour period due to bradykinin exposure, hBMEC/d3 cells were pre-treated with a creatinine pronutrient of the present disclosure and then exposed to 10 μM bradykinin. More specifically, hBMEC/d3 cells were grown on T25 flasks to confluency. Media was removed and exchanged with endothelial cell media containing 0.1% BSA and (1) 1.0 mM CEE, (2) 1.0 mM creatine t-butyl ester hydrochloride (CtB), or (3) 10 μM HOE 140 (a known BR2 receptor antagonist). After a 1-hour incubation, bradykinin (10 μM) was added and samples of media removed and assayed for prostaglandin E2 (PGE2) at 3, 6 and 24 hours. The amount of PGE 2 secreted into the media by the cells was determined using a PGE2 ELISA and normalized to cell lysate protein content.

[4] = system: human brain endothelial cells (HCMEC/d3); assay: Creatinine uptake in HCMEC/d3 cells; type: cell-based; conditions: HCMEC/d3, 1 mM, 3-hour period
Method: In an effort to determine the impact/effectiveness of a formulation made in accordance with the present disclosure on increasing creatinine delivery, different cell types were exposed to several of the formulations in Example 1. More specifically, cellular uptake studies were performed for formulations including CEE and CtB from Example 1. […] In other words, it remains unknown where there is a transporter involved in the accumulation of creatinine. Without being bound by any particular theory, if a transporter is involved for accumulation of creatinine, it may be the organic cation transporter 2 (OCT2) found in kidney tubule epithelial cells. The various cell lines discussed above were first exposed to 1 mM of creatinine (CRN), CEE, and CtB at 37° C. for a 3-hour incubation period at a pH 7.4. After incubation, the assay buffer was collected. The cells were then washed rapidly three times with ice-cold phosphate-buffered saline solution. […] More specifically, the creatinine content in cell lysates was determined using QuantichromTM Creatinine Assay Kit (DICT 500) from Bioassay Systems (Hayward, CA). The assay quantitatively measures creatinine without any pretreatment through an optimized Jaffe method. […] The intensity of the red, measured at 510 nm, is directly proportional to the concentration of creatinine in the sample. […]

COX1 = COX1 (Homo sapiens, UniProt P23219); assay: COX activity, COX1; type: biochemical
Chain of COX1 (P23219 24-599): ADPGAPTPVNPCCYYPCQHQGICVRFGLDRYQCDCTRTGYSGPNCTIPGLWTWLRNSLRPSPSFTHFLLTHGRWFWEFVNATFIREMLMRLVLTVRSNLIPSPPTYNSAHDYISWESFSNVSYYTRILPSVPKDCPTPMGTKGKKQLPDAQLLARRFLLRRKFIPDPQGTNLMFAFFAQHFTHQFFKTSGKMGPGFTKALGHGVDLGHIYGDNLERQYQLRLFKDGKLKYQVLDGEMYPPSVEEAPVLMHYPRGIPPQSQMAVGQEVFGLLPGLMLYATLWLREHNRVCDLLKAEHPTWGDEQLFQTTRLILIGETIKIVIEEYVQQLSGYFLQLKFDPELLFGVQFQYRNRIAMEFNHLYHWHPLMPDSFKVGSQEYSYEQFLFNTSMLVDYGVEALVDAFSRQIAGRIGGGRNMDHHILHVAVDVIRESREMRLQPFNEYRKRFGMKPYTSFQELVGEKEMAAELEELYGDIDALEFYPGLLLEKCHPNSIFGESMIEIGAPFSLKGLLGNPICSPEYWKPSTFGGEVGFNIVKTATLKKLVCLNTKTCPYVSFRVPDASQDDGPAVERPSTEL
From the text: (§1) The effects of the creatinine pronutrient on PGE2 release was not due to the inhibition of prostaglandin synthesis through cyclooxygenase (COX) as production of prostaglandins by either COX1 or COX2 was unaffected by CEE.

COX2 = biological target: T1, COX2 (Homo sapiens, UniProt P35354); assay: COX activity, COX2; type: biochemical
T1 sequence (P35354 18-604): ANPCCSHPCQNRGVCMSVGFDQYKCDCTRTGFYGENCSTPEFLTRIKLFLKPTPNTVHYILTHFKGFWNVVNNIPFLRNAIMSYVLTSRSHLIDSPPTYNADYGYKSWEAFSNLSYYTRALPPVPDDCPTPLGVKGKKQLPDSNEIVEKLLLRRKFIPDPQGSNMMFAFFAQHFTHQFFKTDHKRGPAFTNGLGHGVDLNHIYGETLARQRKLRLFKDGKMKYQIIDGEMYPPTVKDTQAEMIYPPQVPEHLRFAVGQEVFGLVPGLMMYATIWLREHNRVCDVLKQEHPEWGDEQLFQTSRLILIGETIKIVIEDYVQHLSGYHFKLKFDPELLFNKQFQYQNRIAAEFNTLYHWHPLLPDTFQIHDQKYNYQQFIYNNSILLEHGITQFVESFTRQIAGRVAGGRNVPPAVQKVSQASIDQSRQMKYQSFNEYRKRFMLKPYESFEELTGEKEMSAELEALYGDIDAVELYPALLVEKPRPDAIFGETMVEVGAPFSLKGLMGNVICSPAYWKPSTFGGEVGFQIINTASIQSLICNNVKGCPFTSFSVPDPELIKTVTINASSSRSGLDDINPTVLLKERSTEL
From the text: as §1

[5] = Rat PK study, plasma levels after creatinine pronutrient dosing; type: in vivo, sprague-dawley male rats
Method: A rat PK study was performed to determine resulting plasma creatinine levels following creatinine pronutrient dosing. […] Levels of creatine, creatinine pronutrient, and creatinine in the plasma were measured over time. In this study, the specific creatinine pronutrient used was creatine ethyl ester hydrochloride. Blood samples were collected over a 4-hour period via femoral artery catheter. Muscle and brain tissue were collected at the end of the study. Liquid chromatography-mass spectrometry (LCMS) was used for analysis of samples. The area under the plasma concentration curve following oral dosing was compared to that obtained following IV administration. The creatinine pronutrient formulation data in Table 4 was generated from the creatinine data gathered in Example 4 using allometric dosing to determine the human dose equivalent for the labeled creatinine pronutrient (for a 70 kg human). In order to assess the relative bioavailability of the formulations (and to correct for the slightly different doses administered with various forms due to the different molecular weights), the AUC plasma uptake values observed for creatinine and the creatinine pronutrient formulation were entered into the following equation to produce a ratio: […]

[6] = system: hCMEC/d3 (human brain endothelial cells); assay: Bradykinin-induced permeability in microfluidic BBB culture model; type: cell-based; conditions: 1 mM CEE pretreatment 1-hour
Method: In an effort to determine the impact/effectiveness of creatinine pronutrient formulations made in accordance with the present disclosure, studies examined bradykinin-induced effects on endothelial permeability using a microfluidic blood-brain barrier (BBB) culture model consisting of hCMEC/d3 (human brain endothelial cells) grown on Mimeta microfluidic plates. More specifically, permeability studies were performed using the microfluidic BBB culture model under control conditions and following exposure to a low dose (10 nM) or high dose (10 μM) of bradykinin in either the presence or absence of creatine ethyl ester hydrochloride (CEE) as the creatinine pronutrient.
hCMEC/d3 cells in Mimeta microfluidic plate were pretreated for 1 hour with media or media+1 mM CEE. Thereafter, the cells were treated with a low concentration (10 nM) or high concentration (10 μM) of bradykinin. The permeability of a fluorescent dye (IRdye 800) was assessed after 30 minutes.

[7] = Human single oral dose pharmacokinetics of creatinine (Ostojic et al. 2019); type: in vivo; conditions: plasma, oral 3 grams creatinine given with 3 grams creatine nitrate, computed from literature data, read-out: AUC(0-120m) (converted)
From the text: The creatinine data in Table 4 was generated from the data provided in Ostojic et al., Food Sci Nutr. 2019. […] In order to assess the relative bioavailability of the formulations (and to correct for the slightly different doses administered with various forms due to the different molecular weights), the AUC plasma uptake values observed for creatinine and the creatinine pronutrient formulation were entered into the following equation to produce a ratio: […]

[8] = human, oral 3 grams creatinine given with 3 grams creatine nitrate; cited from earlier work
[9] = cited from earlier work
[10] = rat, after 10 or 70 mg/kg oral or 10 mg/kg IV creatinine pronutrient

CN(CC(=O)OC(C)(C)C)C(=N)N.Cl [CtB, creatine tert-butyl ester hydrochloride]
creatinine accumulation compared with 1 mM creatinine [1]: greater; also recorded: almost double | Ratio (relative to CM) [2]: ≥18 | solubility at 1.5 h [2]: 389 mg/mL | permeability coefficient ([3]; breast cancer patient CF80 6 month plasma, 24-hour treatment (2.78×10^−8 without CtB)): 0.00963 ×10⁻⁶ cm/s | permeability coefficient ([3]; breast cancer patient CF80 baseline plasma, 24-hour treatment (1.06×10^−8 without CtB)): 0.00297 ×10⁻⁶ cm/s | permeability increases produced by plasma samples from cancer patients ([3]; addition of 1 mM): attenuated | inhibition of prostaglandin (PGE2) release (hBMEC/d3 cells): as effective at inhibiting prostaglandin release as the known BR2 receptor antagonist HOE 140 | creatinine accumulation compared with 1 mM creatinine [4]: greater

CC(C)CCOC(=O)CN(C)C(=N)N [Creatine Isopentyl Ester HCl, creatine isopentyl ester hydrochloride]
Ratio (relative to CM) [2]: >29 | solubility at 1.5 h [2]: > 600 mg/mL

CCOC(=O)CN(C)C(=N)N [CEE, creatine ethyl ester hydrochloride]
Ratio (relative to CM) [2]: >9 | solubility at 1.5 h [2]: 205 mg/mL | production of prostaglandins by COX1 (COX1): unaffected | production of prostaglandins by COX2 (COX2): unaffected | PGE release in response to bradykinin (hBMEC/d3 cells): prevents PGE release | inhibition of prostaglandin (PGE2) release (hBMEC/d3 cells): as effective at inhibiting prostaglandin release as the known BR2 receptor antagonist HOE 140 | creatinine delivered to the plasma as compared to creatinine ([5]; high and low doses): twice as much | creatine in plasma samples [5, 10]: no detectable amount | creatinine pronutrient in plasma samples [5, 10]: Small but measurable amounts | creatinine in plasma samples ([5]; rat, after creatinine pronutrient dosing, especially at the high dose): Substantial levels | permeability coefficient of IRdye 800 ([6]; then 10 nM bradykinin (1.05×10^−8 without CEE)): 0.00343 ×10⁻⁶ cm/s | permeability coefficient of IRdye 800 ([6]; then 10 μM bradykinin (2.90×10^−8 without CEE)): 0.0142 ×10⁻⁶ cm/s

CN(CC(=O)OC1CCCCC1)C(=N)N [Creatine Cyclohexyl Ester Tosylate, creatine cyclohexyl ester]
Ratio (relative to CM) [2]: <1.0 | solubility at 1.5 h [2]: 15 to 20 mg/mL

CCOC(=O)CCNC(=N)N [Ethyl (α-guanido-methyl) ethonoate, ethyl (α-guanido-methyl) ethanoate]
Ratio (relative to CM) [2]: >8 | solubility at 1.5 h [2]: 178 ± 7.2 mg/mL (≈ 1120 mM)

CN1CC(=O)NC1=N [Creatinine, creatinine]
AUC [7]: 4600 ng·h/mL | Cmax (plasma creatinine) [8]: 15300 ng/mL | Cmin (plasma creatinine) [8]: 11300 ng/mL | Tmax [8]: 1 h | solubility [9]: 23 mg/mL (≈ 203 mM)

CCOC(=O)CNC(=O)CN(C)C(=N)N [Creatine Glycinamide Ethyl Ester HCl, creatine glycinamide ethyl ester]
Ratio (relative to CM) [2]: >29 | solubility at 1.5 h [2]: > 600 mg/mL
